According to patent publication US10647671B2, “Promysalin analogues and methods of use thereof” (Temple University—Of The Commonwealth System of Higher …, priority 2016, dated 2020):
Like-named read-outs stand apart in the source and are kept apart here. Values belong to the compound of their own block, whether it stands above or below them.

Columns and labels:
[1] = tested on: P. aeruginosa PA14; experiment: IC50 assay (OD595, 24 h) against PA14; type: cell-based, Pseudomonas aeruginosa; conditions: for IC50: Pseudomonas aeruginosa
Procedure: (§1) P. aeruginosa PA01, and PA14 were gifts from Prof. George O'Toole (Dartmouth Medical School). Bacterial cultures were grown from freezer stocks overnight (16-24 hr) with shaking at 37° C. in Tryptic Soy Broth (TSB) media (10 mL). Growth curves were obtained for PA01 and PA14 to determine the OD of each strain in exponential growth; OD readings at 595 nm were taken every 10 minutes for 6 hours in a plate reader at 37° C. with shaking and repeated six times. (see FIGS. 6A and 6B)
(§2) Compounds were serially diluted in sterile DI water from a stock solution (1 mM in 10% DMSO/90% H2O) to yield twenty-four test concentrations. Overnight cultures were diluted 1:100 in 5 mL fresh media and grown with shaking at 37° C. to an OD of 0.32 (see growth curves). Bacteria were diluted to a concentration of 0.004 using the following equation: (x μL O/N)(OD reading)=(0.004)(volume needed) and 100 μL was inoculated into each well of a flat-bottom 96-well plate (Corning 3370) containing 100 μL of compound solution. Plates were incubated statically at 37° C. for 24 hours, upon which time the OD at 595 nm was measured using a plate reader. IC50 values were calculated by fitting the OD readings vs. concentration with a 4 parameter logistic model. Controls were prepared by serially diluting a 10% DMSO/90% H2O the same as the compound stock solution. Compounds were tested in triplicate from separate O/N cultures and results averaged.
Compounds were serially diluted in sterile DI water from a stock solution (10% DMSO/H2O) yielding 24 test concentrations. Bacteria were diluted to a final concentration of 0.004 from regrown overnight culture according to the following equation: (xμL bacterial culture)(OD reading)=(0.004)(total volume needed) and 100 μL was inoculated into each well of a flat-bottom 96-well plate (Corning 3370) containing 100 μL of compound solution. Plates were incubated statically at 37° C. for 24 hours upon which time OD at 595 nm was measured using a plate reader (Spectra Max 190). IC50 values were calculated using OD values and concentrations with a 4-parameter logistic model. Control experiments used a 10% DMSO/H2O stock serially diluted to the same 24 concentrations. Compounds were tested in triplicate from three independent overnight cultures.

[2] = tested on: P. aeruginosa strains PAO1 and PA14; experiment: Inhibitory activity against P. aeruginosa, strain not separated in text; type: cell-based, Pseudomonas aeruginosa; conditions: for inhibitory activity against P. aeruginosa, in words (SAR): compared with promysalin; for IC50: Pseudomonas aeruginosa, PAO1 and PA14, read-out: IC50 / inactive up to concentration
Procedure: as §1, §2
With a library of sixteen analogs in hand, all of the compounds were evaluated for inhibitory activity against P. aeruginosa strains PAO1 and PA14. […] The inhibition data supported our initial hypothesis that the conformation of promysalin is exquisitely linked to its inhibition of PA. Of our modifications to the proline structure, fluorination (9)—being the smallest steric perturbation, was the only compound with equipotency to that of promysalin.

[3] = tested on: P. aeruginosa PA01; experiment: IC50 assay (OD595, 24 h) against PA01; type: cell-based; conditions: Pseudomonas aeruginosa
Procedure: P. aeruginosa PA01, and PA14 were gifts from Prof. George O'Toole (Dartmouth Medical School). Bacterial cultures were grown from freezer stocks overnight (16-24 hr) with shaking at 37° C. in Tryptic Soy Broth (TSB) media (10 mL). Growth curves were obtained for PA01 and PA14 to determine the OD of each strain in exponential growth; OD readings at 595 nm were taken every 10 minutes for 6 hours in a plate reader at 37° C. with shaking and repeated six times. (see FIGS. 6A and 6B) Compounds were serially diluted in sterile DI water from a stock solution (1 mM in 10% DMSO/90% H2O) to yield twenty-four test concentrations. Overnight cultures were diluted 1:100 in 5 mL fresh media and grown with shaking at 37° C. to an OD of 0.32 (see growth curves). Bacteria were diluted to a concentration of 0.004 using the following equation: (x μL O/N)(OD reading)=(0.004)(volume needed) and 100 μL was inoculated into each well of a flat-bottom 96-well plate (Corning 3370) containing 100 μL of compound solution. Plates were incubated statically at 37° C. for 24 hours, upon which time the OD at 595 nm was measured using a plate reader. IC50 values were calculated by fitting the OD readings vs. concentration with a 4 parameter logistic model. Controls were prepared by serially diluting a 10% DMSO/90% H2O the same as the compound stock solution. Compounds were tested in triplicate from separate O/N cultures and results averaged.

[4] = average of EXPT 1-3, read-out: IC50 PA01 AVG
[5] = averages of three independent experiments, read-out: IC50 PA01
[6] = single trial 1, read-out: IC50 PA01 EXPT 1
[7] = single trial 2, read-out: IC50 PA01 EXPT 2
[8] = single trial 3, read-out: IC50 PA01 EXPT 3
[9] = average of EXPT 1-3, read-out: IC50 PA14 AVG
[10] = averages of three independent experiments, read-out: IC50 PA14
[11] = single trial 1, read-out: IC50 PA14 EXPT 1
[12] = single trial 2, read-out: IC50 PA14 EXPT 2
[13] = single trial 3, read-out: IC50 PA14 EXPT 3

IC50 ([1]; read-out: IC50 in PA14): 1.7 µM
Structure (SMILES): C#CCCC1(CCNC(=O)[C@H](O)CCCCC[C@@H](CCCCCC)OC(=O)[C@@H]2CC=CN2C(=O)c2ccccc2O)N=N1 [(−)-2, (7R,13R)-14-((2-(3-(but-3-yn-1-yl)-3H-diazirin-3-yl)ethyl)amino)-13-hydroxy-14-oxotetradecan-7-yl (S)-1-(2-hydroxybenzoyl)-2,3-dihydro-1H-pyrrole-2-carboxylate]
less active than promysalin [2]: ~10 ×

Structure (SMILES): CCCCCC[C@H](CCCCC[C@@H](O)C(N)=O)OC(=O)[C@@H]1CC=CN1C(=O)c1cccc(O)c1 [compound 12, (7R,13R)-14-amino-13-hydroxy-14-oxotetradecan-7-yl (S)-1-(3-hydroxybenzoyl)-2,3-dihydro-1H-pyrrole-2-carboxylate]
inhibitory activity against P. aeruginosa, in words (SAR) [2]: largely unforgiving

Structure (SMILES): C#CCCC1(CCNC(=O)[C@H](O)CCCCC[C@@H](CCCCCC)OC(=O)[C@@H]2CC=CN2C(=O)c2ccccc2)N=N1 [(−)-S12, (7R,13R)-14-((2-(3-(but-3-yn-1-yl)-3H-diazirin-3-yl)ethyl)amino)-13-hydroxy-14-oxotetradecan-7-yl (S)-1-benzoyl-2,3-dihydro-1H-pyrrole-2-carboxylate]
inhibitory activity against P. aeruginosa, in words (SAR) [2]: inactive

IC50 [2]: > 250 µM
Structure (SMILES): CCCCCC[C@@H](O)CCCCC[C@@H](O)C(N)=O [compound 4, (2R,8R)-2,8-dihydroxytetradecanamide]

Structure (SMILES): CCCCCC[C@H](CCCCC[C@@H](O)C(N)=O)OC(=O)[C@@H]1CC=CN1C(=O)c1ccccc1[N+](=O)[O-] [compound 17, (7R,13R)-14-amino-13-hydroxy-14-oxotetradecan-7-yl (S)-1-(2-nitrobenzoyl)-2,3-dihydro-1H-pyrrole-2-carboxylate]
inhibitory activity against P. aeruginosa, in words (SAR) [2]: largely unforgiving

IC50 [3, 4]: 31.9 µM
IC50 [3, 5]: 32 µM
IC50 [3, 6]: 32.3 µM
IC50 [3, 7]: 32.5 µM
IC50 [3, 8]: 31.1 µM
IC50 [1, 9]: 11.4 µM
IC50 [1, 10]: 12 µM
IC50 [1, 11]: 10.8 µM
IC50 [1, 12]: 11.2 µM
IC50 [1, 13]: 12.2 µM
Structure (SMILES): CCCCCC[C@H](CCCCC[C@@H](O)C(N)=O)OC(=O)[C@@H]1CC(C)=CN1C(=O)c1ccccc1O [compound 10, (7R,13R)-14-amino-13-hydroxy-14-oxotetradecan-7-yl (S)-1-(2-hydroxybenzoyl)-4-methyl-2,3-dihydro-1H-pyrrole-2-carboxylate]
inhibitory activity against P. aeruginosa, in words (SAR) [2]: slightly tolerated

IC50 [3, 4]: 56.7 µM
IC50 [3, 5]: 57 µM
IC50 [3, 6]: 59.3 µM
IC50 [3, 7]: 55.4 µM
IC50 [3, 8]: 55.5 µM
IC50 [1, 9]: 6.74 µM
IC50 [1, 10]: 6.7 µM
IC50 [1, 11]: 6.98 µM
IC50 [1, 12]: 5.86 µM
IC50 [1, 13]: 7.39 µM
Structure (SMILES): CCCCCC[C@H](CCCCC[C@@H](O)C(N)=O)OC(=O)[C@@H]1CC=CN1C(=O)c1ccccc1OC [compound 11, (1R,7R)-1-carbamoyl-1-hydroxytridecan-7-yl (2S)-1-(2-methoxybenzoyl)-2,3-dihydro-1H-pyrrole-2-carboxylate]
inhibitory activity against P. aeruginosa, in words (SAR) [2]: an order of magnitude less potency

Structure (SMILES): CCCCCC[C@H](CCCCC[C@@H](O)C(N)=O)OC(=O)[C@@H]1CC[C@H]2Oc3ccccc3C(=O)N21 (single isomer, unassigned) [2b]
inhibitory activity against P. aeruginosa, in words (SAR) [2]: no biological activity

Structure (SMILES): CCCCCC[C@H](CCCCC[C@@H](O)C(N)=O)OC(=O)[C@@H]1CC=CN1C(=O)c1ccccc1 [compound 14, (1R,7R)-1-carbamoyl-1-hydroxytridecan-7-yl (2S)-1-benzoyl-2,3-dihydro-1H-pyrrole-2-carboxylate]
inhibitory activity against P. aeruginosa, in words (SAR) [2]: largely unforgiving

IC50 ([1]; preliminary screening for probe design, read-out: IC50 in PA14): 0.218 µM
Structure (SMILES): C#CCNC(=O)[C@H](O)CCCCC[C@@H](CCCCCC)OC(=O)[C@@H]1CC=CN1C(=O)c1ccccc1O [(−)-S4, (7R,13R)-13-hydroxy-14-oxo-14-(prop-2-yn-1-ylamino)tetradecan-7-yl (S)-1-(2-hydroxybenzoyl)-2,3-dihydro-1H-pyrrole-2-carboxylate]
activity relative to the natural product [1]: three-fold less active

Structure (SMILES): CCCCCC[C@H](CCCCC[C@@H](O)C(N)=O)OC(=O)[C@@H]1CCCCN1C(=O)c1ccccc1O [compound 7, (1R,7R)-1-carbamoyl-1-hydroxytridecan-7-yl (2S)-1-(2-hydroxybenzoyl)piperidine-2-carboxylate]
inhibitory activity against P. aeruginosa, in words (SAR) [2]: inactive

Structure (SMILES): CCCCCC[C@H](CCCCC[C@@H](O)C(N)=O)OC(=O)[C@@H]1C[C@@H](O)CN1C(=O)c1ccccc1O [compound 8, (1R,7R)-1-carbamoyl-1-hydroxytridecan-7-yl (2S,4R)-4-hydroxy-1-(2-hydroxybenzoyl)pyrrolidine-2-carboxylate]
inhibitory activity against P. aeruginosa, in words (SAR) [2]: inactive

Structure (SMILES): CCCCCC[C@H](CCCCC[C@@H](O)C(N)=O)OC(=O)[C@@H]1CC=CN1C(=O)c1c(O)cccc1OC [compound 15, (7R,13R)-14-amino-13-hydroxy-14-oxotetradecan-7-yl (S)-1-(2-hydroxy-6-methoxybenzoyl)-2,3-dihydro-1H-pyrrole-2-carboxylate]
inhibitory activity against P. aeruginosa, in words (SAR) [2]: not tolerated

Structure (SMILES): CCCCCC[C@H](CCCCC[C@@H](O)C(N)=O)OC(=O)[C@@H]1CC=CN1C(=O)c1ccc(O)cc1 [compound 13, (1R,7R)-1-carbamoyl-1-hydroxytridecan-7-yl (2S)-1-(4-hydroxybenzoyl)-2,3-dihydro-1H-pyrrole-2-carboxylate]
inhibitory activity against P. aeruginosa, in words (SAR) [2]: largely unforgiving

IC50 [2]: > 250 µM
Structure (SMILES): COC(=O)[C@@H]1CC=CN1C(=O)c1ccccc1O [compound 5, Methyl (2S)-1-(2-hydroxybenzoyl)-2,3-dihydro-1H-pyrrole-2-carboxylate]

IC50 [3, 4]: 5.85 µM
IC50 [3, 5]: 5.8 µM
IC50 [3, 6]: 4.78 µM
IC50 [3, 7]: 5.64 µM
IC50 [3, 8]: 7.12 µM
IC50 [1, 9]: 0.035 µM
IC50 [1, 10]: 0.035 µM
IC50 [1, 11]: 0.02 µM
IC50 [1, 12]: 0.09 µM
Structure (SMILES): CCCCCC[C@H](CCCCCCC(N)=O)OC(=O)[C@@H]1CC=CN1C(=O)c1ccccc1O [compound 18, (R)-14-amino-14-oxotetradecan-7-yl (S)-1-(2-hydroxybenzoyl)-2,3-dihydro-1H-pyrrole-2-carboxylate]
inhibitory activity against P. aeruginosa, in words (SAR) [2]: fully retained

Structure (SMILES): CCCCCC[C@H](CCCCC[C@@H](O)C(N)=O)OC(=O)[C@@H]1CC[C@@H]2Oc3ccccc3C(=O)N21 (single isomer, unassigned) [2a]
inhibitory activity against P. aeruginosa, in words (SAR) [2]: no biological activity

Structure (SMILES): CCCCCC[C@H](CCCCC[C@@H](O)C(N)=O)OC(=O)[C@@H]1CC=CN1C(=O)c1cc(OC)c(OC)c(OC)c1 [compound 16, (1R,7R)-1-carbamoyl-1-hydroxytridecan-7-yl (2S)-1-(3,4,5-trimethoxybenzoyl)-2,3-dihydro-1H-pyrrole-2-carboxylate]
inhibitory activity against P. aeruginosa, in words (SAR) [2]: not tolerated
